From paper PMC11192711, “Automated radiosynthesis and preclinical evaluation of two new PSMA-617 derivatives radiolabelled via [^18F]AlF^2+ method” (EJNMMI Radiopharmacy and Chemistry, 2024)
pIC50: −log10 of the molar value.

Experiments:
PSMA = molecular target: T1, PSMA (Homo sapiens, UniProt Q04609); experiment: Competitive cell binding assay on fixed PC3-PIP cells against [^18F]F-PSMA-1007; conditions: 0.75 nM [^18F]F-PSMA-1007, 60 min room temperature, read-out: inhibition potency toward PMSA (IC50)
T1 construct: expressed in transfected cells; host or cells: PC3-PIP cells (PC3 stably expressing PSMA), fixed with 0.2% glutaraldehyde
T1 sequence (Q04609 whole entry): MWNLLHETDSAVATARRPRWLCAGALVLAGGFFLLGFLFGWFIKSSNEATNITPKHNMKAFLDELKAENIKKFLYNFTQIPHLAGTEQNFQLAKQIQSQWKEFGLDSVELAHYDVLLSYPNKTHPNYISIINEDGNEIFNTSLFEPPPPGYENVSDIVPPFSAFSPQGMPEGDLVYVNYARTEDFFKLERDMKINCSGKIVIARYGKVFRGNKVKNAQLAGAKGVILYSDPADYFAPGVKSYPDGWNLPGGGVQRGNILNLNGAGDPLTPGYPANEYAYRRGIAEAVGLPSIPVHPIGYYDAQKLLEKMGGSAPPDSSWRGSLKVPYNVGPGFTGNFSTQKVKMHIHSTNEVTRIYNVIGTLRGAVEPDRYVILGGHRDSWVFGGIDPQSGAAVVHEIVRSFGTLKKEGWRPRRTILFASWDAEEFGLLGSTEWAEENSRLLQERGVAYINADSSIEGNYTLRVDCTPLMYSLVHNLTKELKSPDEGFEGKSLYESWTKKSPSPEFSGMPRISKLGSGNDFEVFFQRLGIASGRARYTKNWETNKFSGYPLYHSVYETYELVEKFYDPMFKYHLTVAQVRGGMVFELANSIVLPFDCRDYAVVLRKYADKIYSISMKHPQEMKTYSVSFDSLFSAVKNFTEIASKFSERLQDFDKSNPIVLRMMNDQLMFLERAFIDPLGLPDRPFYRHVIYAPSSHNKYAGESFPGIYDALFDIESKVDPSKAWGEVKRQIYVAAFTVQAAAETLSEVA
Method: Competitive cell binding experiments were conducted using PC3-PIP cells, [^18F]F-PSMA-1007, 300 nM PSMA-1007, and 8 different concentrations of PSMA-617-NODA (7) and PSMA-617-RESCA (9) (0, 0.01, 0.1, 1, 10, 100, 1000, 10,000 nM).
For in vitro uptake, the PC3-PIP cell line, which is isogenic to PC3 and stably expresses PSMA(Ghosh et al. [2005]), and PC-3 cell line (PSMA negative) were used. 40.000 PC3-PIP and PC3 cells were seeded in 96-well cell culture plates and at the confluence were fixed adding 100 µl of 0.2% glutaraldehyde in PBS to medium. After 5 min incubation at 37 °C, the cells were washed six times with PBS. Then 200 µl of 0.1 M Glycine in PBS with 0.02% of sodium azide were added. After 5 min, the cells were washed 6 times with PBS and finally 250 µl of 1% BSA in PBS with 0.2% of sodium azide were added. The competitive cell binding assays were performed as follows: PC3-PIP fixed cells were incubated with [^18F]F-PSMA-1007 at a concentration of 0.75 nM in the presence of 8 different concentrations of PSMA-617-NODA (7) and PSMA-617-RESCA (9) (0, 0.01, 0.1, 1, 10, 100, 1000, 10,000 nM) and of 300 nM of PSMA-1007. […] The activity in the supernatants and cell pellets was determined using a gamma counter (1282 Compugamma CS, LKB Wallac, Finland). Cellular uptake was calculated as the percentage of radioactivity in cell pellets. […]

[1] = system: Gli36ΔEGFR tumours-bearing nude mice; experiment: PET/CT in vivo biodistribution and tumour uptake in orthotopic Gli36ΔEGFR glioma model; conditions: n = 3; for Bone (SUV mean) / Brain (SUV mean) / Colon (SUV mean) / Gall bladder (SUV mean) / Heart (SUV mean) / Kidney (SUV mean) / Liver (SUV mean) / Lung (SUV mean) / Muscle (SUV mean) / Salivary gland (SUV mean) / Small instestine (SUV mean): Gli36ΔEGFR female nude mice, i.v., PET/CT; for tumour-to-contralateral healthy brain ratio (tumour SUV max/contralateral SUV mean): Gli36ΔEGFR orthotopic glioma, nude mice
Method: Subsequently, we evaluated the uptake of [^18F]F-PSMA-617-NODA ([^18F]1) and [^18F]F-PSMA-617-RESCA ([^18F]2) in an orthotopic glioma model obtained with Gli36ΔEGFR cells in female nude mice. Gli36ΔEGFR tumours-bearing nude mice (n = 3) were injected i.v. with either [^18F]F-PSMA-617-NODA or [^18F]F-PSMA-617-RESCA (~ 3.8 MBq/mouse, ~ 50 pmol for [^18F]1 and ~ 170 pmol [^18F]2). Radiotracer uptake was assessed after 10, 60 and 120 min post injection by whole-body PET/CT acquisitions. Also in nude female mice, a rapid clearance of [^18F]1 in all organs and the same kinetic observed in NSG male mice (Additional file 1: S71A and B) were confirmed. […] It is interesting to note that the uptake of [^18F]1 in kidneys decreased over time in both models (Additional file 1: S71A and B), while the uptake of [^18F]F-PSMA-1007 in NSG model and [^18F]2 in nude female mice model increased (Additional file 1: S71C and D).
Total body biodistribution of [^18F]F-PSMA-1007, [^18F]F-PSMA-617-NODA and [^18F]F-PSMA-617-RESCA was evaluated in vivo using imaging PET/CT. [^18F]F-PSMA-617-NODA uptake was compared to that of the [^18F]F-PSMA-1007 in a PSMA positive prostate tumour xenograft model (LNCaP). [^18F]F-PSMA-617-NODA and [^18F]F-PSMA-617-RESCA uptake were also evaluated using an orthotopic glioma model (Gli36ΔEGFR).
5 × 10^5 Gli36ΔEGFR cells were injected in the right striatum of seven to eight weeks old female nude mice (Envigo RMS s.r.l., Italy) as previously described (Valtorta et al. [2021]). Ten days after mice underwent a T2-weighted Magnetic Resonance Imaging (MRI) using a 7 T small animal magnetic resonance scanner (Bruker, BioSpec 70/30 USR, Paravision 5.1, Germany) to confirm the growth of the tumour. Then, the same mice underwent in vivo biodistribution of [^18F]F-PSMA-617-NODA and [^18F]F-PSMA-617-RESCA, on successive but non-consecutive days, using PET/CT.
Mice were injected into a tail vein with 3.8 ± 0.1 MBq of [^18F]F-PSMA-1007, 4.0 ± 0.2 MBq of [^18F]F-PSMA-617-NODA ([^18F]1) and 3.8 ± 0.1 MBq of [^18F]F-PSMA-617-RESCA ([^18F]2), respectively.
Total body PET/CT acquisitions were performed using PET/CT tomographs dedicated to small animals, X-ß-CUBE (Molecubes, Gent, Belgium) after 10, 60 and 120 min from tracer injection. Each acquisition lasted 30 min and mice were maintained anesthetized (4% isoflurane in induction and 2% in maintenance in air) during acquisition.
Image quantification analysis was performed with PMOD 4.105 software (Zurich, Switzerland). Volumes of interest (VOIs) were drawn on peripheral organs (tumour, thoracic muscle, heart, liver, kidney, salivary glands, lung, small intestine, colon, bone, gall bladder) and on the healthy brain using CT images. For the glioma model, PET/CT images were co-registered to MRI images and two different VOIs were defined: (1) a control VOI covering the healthy left striatum (volume 4 mm^3) was drawn on the axial MR images, adjusted on the other imaging planes and then copied on the PET images of each mouse; (2) a second glioma-covering VOI was drawn in the tumour-affected brain hemisphere and centered on mice lesions.
For quantification, Standardized Uptake Value (SUV) was calculated according to the formula:
SUV = organ concentration activity [MBq/g]/(injected activity [MBq]/animal weight [g]).
The data were expressed as standardized-uptake-values (SUVmean and SUVmax) and as tumour-to-muscle (T/M) and tumour-to-blood (T/B) ratio in PCa model and as tumour-to-contralateral (T/Cl) ratio in glioma model.

[2] = Stability in final solution (analytical HPLC and radio-TLC); assay type: physicochemical; conditions: for release of [^18F]AlF^2+: in solution
Method: Chemical and radiochemical stability in the final solution were tested by analytical HPLC and radio-TLC (Additional file 1: S37–S41); samples of the purified product were analyzed up to four hours after the end of radiosynthesis, at time intervals of two hours and storing the vial at room temperature.
Stability in solution of [^18F]F-PSMA-617-NODA ([^18F]1) and [^18F]F-PSMA-617-RESCA ([^18F]2) were evaluated injecting in RP-HPLC (for experimental conditions, see sections “(((S)-5-((S)-2-((1R,4S)-4-((4-(4,7-bis(carboxymethyl)-1,4,7-triazonan-1-yl)butanamido)methyl)cyclohexane-1-carboxamido)-3-(naphthalen-2-yl)propanamido)-1-carboxypentyl)carbamoyl)-L-glutamic acid [^18F] aluminium fluoride ([^18F] 1)” and “(((S)-5-((S)-2-((1R,4S)-4-((2-(4-((((1R,2R)-2-(bis(carboxymethyl)amino)cyclohexyl)(carboxymethyl)amino)methyl)phenyl)acetamido)methyl)cyclohexane-1-carboxamido)-3-(naphthalen-2-yl)propanamido)-1-carboxypentyl)carbamoyl)-L-glutamic acid [18F] aluminium fluoride ([18F] 2)”) samples (20 µl) of respective radiopharmaceutical solutions at t = 0 (EOS), after 2 h and after 4 h. Moreover, ≈ 7.5 kBq of [^18F]1 or [^18F]2 solution were deposited on TLC sheet. The TLC was imaged using Cyclone® Plus Phosphor Scanner and software OptiQuant™.

[3] = Stability in human plasma (HPLC, radio-TLC, pellet/supernatant activity); assay type: in vitro ADME; conditions: ACN precipitation
Method: Stability in plasma was evaluated mixing aliquots of [^18F]1 or [^18F]2 solutions (10 MBq for 2 h incubation and 20 MBq for 4 h incubation samples) with 200 µL of human serum. The mixtures were incubated at 37 °C. Aliquots were taken at 2 h and 4 h. Plasma pellet was precipitated with 200 µL acetonitrile and centrifuged (13,500 rpm, 10 min). The supernatant was removed, and the activity of the supernatant solution and pellet was measured using a dose calibrator (VIK-202 Comecer). The supernatant solution was analyzed injecting in RP-HPLC (diluted 1:5 in water) and Radio-TLC as above described.

[4] = [18F]2, 2 h incubation in plasma, total activity incubated 3.91 MBq
[5] = [18F]2, 4 h incubation in plasma, total activity incubated 4.62 MBq

`O=C(O)CC[C@H](NC(=O)N[C@@H](CCCCNC(=O)[C@H](Cc1ccc2ccccc2c1)NC(=O)[C@H]1CC[C@H](CNC(=O)CCCN2CCN(CC(=O)O)CCN(CC(=O)O)CC2)CC1)C(=O)O)C(=O)O` [PSMA-617-NODA, (((S)-5-((S)-2-((1R,4S)-4-((4-(4,7-bis(carboxymethyl)-1,4,7-triazonan-1-yl)butanamido)methyl)cyclohexane-1-carboxamido)-3-(naphthalen-2-yl)propanamido)-1-carboxypentyl)carbamoyl)-L-glutamic acid] gave a pIC50 (PSMA) of 7.19.
Work on `O=C(O)CCC(NC(=O)NC(CCCCNC(=O)C(Cc1ccc2ccccc2c1)NC(=O)C1CCC(CNC(=O)Cc2ccc(CN(CC(=O)O)C3CCCCC3N(CC(=O)O)CC(=O)O)cc2)CC1)C(=O)O)C(=O)O` [PSMA-617-RESCA, (((S)-5-((S)-2-((1R,4S)-4-((2-(4-((((1R,2R)-2-(bis(carboxymethyl)amino)cyclohexyl)(carboxymethyl)amino)methyl)phenyl)acetamido)methyl)cyclohexane-1-carboxamido)-3-(naphthalen-2-yl)propanamido)-1-carboxypentyl)carbamoyl)-L-glutamic acid] yielded a pIC50 (PSMA) of 7.70.
For `O=C(O)CCC(NC(=O)NC(CCCCNC(=O)C(Cc1ccc2ccccc2c1)NC(=O)C1CCC(CNC(=O)Cc2ccc(CN(CC(=O)O)C3CCCCC3N(CC(=O)O)CC(=O)O)cc2)CC1)C(=O)O)C(=O)O.[18F][Al]` [[^18F]F-PSMA-617-RESCA, (((S)-5-((S)-2-((1R,4S)-4-((2-(4-((((1R,2R)-2-(bis(carboxymethyl)amino)cyclohexyl)(carboxymethyl)amino)methyl)phenyl)acetamido)methyl)cyclohexane-1-carboxamido)-3-(naphthalen-2-yl)propanamido)-1-carboxypentyl)carbamoyl)-L-glutamic acid [^18F] aluminium fluoride], the “Bone (SUV mean)” value ([1]; 10 min p.i.) was 0.21 ± 0.03, the “Brain (SUV mean)” value ([1]; 10 min p.i.) was 0.09 ± 0.02 and the “Colon (SUV mean)” value ([1]; 10 min p.i.) was 0.29 ± 0.23. For the same compound, the “Gall bladder (SUV mean)” value ([1]; 10 min p.i.) was 3.28 ± 3.18, the “Heart (SUV mean)” value ([1]; 10 min p.i.) was 0.35 ± 0.05 and the “Kidney (SUV mean)” value ([1]; 10 min p.i.) was 6.92 ± 1.16. For the same compound, the “Liver (SUV mean)” value ([1]; 10 min p.i.) was 0.98 ± 0.15, the “Lung (SUV mean)” value ([1]; 10 min p.i.) was 0.31 ± 0.01 and the “Muscle (SUV mean)” value ([1]; 10 min p.i.) was 0.19 ± 0.05. For the same compound, the “Salivary gland (SUV mean)” value ([1]; 10 min p.i.) was 0.54 ± 0.14, the “Small instestine (SUV mean)” value ([1]; 10 min p.i.) was 1.99 ± 1.44 and the “Bone (SUV mean)” value ([1]; 60 min p.i.) was 0.20 ± 0.07. For the same compound, the “Brain (SUV mean)” value ([1]; 60 min p.i.) was 0.07 ± 0.02, the “Colon (SUV mean)” value ([1]; 60 min p.i.) was 0.78 ± 1.05 and the “Gall bladder (SUV mean)” value ([1]; 60 min p.i.) was 5.22 ± 4.23. The “Heart (SUV mean)” value ([1]; 60 min p.i.) was 0.17 ± 0.03, the “Kidney (SUV mean)” value ([1]; 60 min p.i.) was 10.21 ± 0.80 and the “Liver (SUV mean)” value ([1]; 60 min p.i.) was 0.65 ± 0.22. For the same compound, the “Lung (SUV mean)” value ([1]; 60 min p.i.) was 0.19 ± 0.04, the “Muscle (SUV mean)” value ([1]; 60 min p.i.) was 0.12 ± 0.02 and the “Salivary gland (SUV mean)” value ([1]; 60 min p.i.) was 0.45 ± 0.10. For the same compound, the “Small instestine (SUV mean)” value ([1]; 60 min p.i.) was 3.07 ± 1.02, the “Bone (SUV mean)” value ([1]; 120 min p.i.) was 0.15 ± 0.11 and the “Brain (SUV mean)” value ([1]; 120 min p.i.) was 0.07 ± 0.01. The “Colon (SUV mean)” value ([1]; 120 min p.i.) was 3.87 ± 5.37, the “Gall bladder (SUV mean)” value ([1]; 120 min p.i.) was 5.07 ± 4.26 and the “Heart (SUV mean)” value ([1]; 120 min p.i.) was 0.11 ± 0.03. For the same compound, the “Kidney (SUV mean)” value ([1]; 120 min p.i.) was 10.64 ± 1.25, the “Liver (SUV mean)” value ([1]; 120 min p.i.) was 0.30 ± 0.11 and the “Lung (SUV mean)” value ([1]; 120 min p.i.) was 0.12 ± 0.03. For the same compound, the “Muscle (SUV mean)” value ([1]; 120 min p.i.) was 0.11 ± 0.04, the “Salivary gland (SUV mean)” value ([1]; 120 min p.i.) was 0.28 ± 0.10 and the “Small instestine (SUV mean)” value ([1]; 120 min p.i.) was 5.79 ± 2.07. The “tumour-to-contralateral healthy brain ratio (tumour SUV max/contralateral SUV mean)” value ([1]; 60 min p.i.) was 2.93 ± 1.23, the “tumour-to-contralateral healthy brain ratio (tumour SUV max/contralateral SUV mean)” value ([1]; 120 min p.i.) was 2.93 ± 0.08 and the “amount of free [^18F]AlF^2+ in solution” value ([2]; approximately 85 min after EOS (time of injection), supposed) was under 5%. The “release of [^18F]AlF^2+” value ([2]; after 2 h of incubation at room temperature) was 4.9%, the “release of [^18F]AlF^2+” value ([2]; at EOS) was 1.2% and the “release of [^18F]AlF^2+” value ([2]; room temperature, after 4 h) was 10%. The Pellet activity [3, 4] was 0.45 MBq, the Supernatant activity [3, 4] was 3.46 MBq and the Pellet activity [3, 5] was 0.57 MBq. It also gave a Supernatant activity [3, 5] of 4.05 MBq.
